Test results: article PMC7463537, “Synthesis and Evaluation of Antimicrobial and Cytotoxic Activity of Oxathiine-Fused Quinone-Thioglucoside Conjugates of Substituted 1,4-Naphthoquinones” (Molecules, 2020)

How the values were obtained:
C. albicans KMM 453 = test: Agar diffusion method, C. albicans; type: cell-based; details: Candida albicans, read-out: Diameter of Zone Inhibition, C. albicans; for zone of inhibition at 100 µg/disc: KMM453, 48 h, 100 µg/well, 48 h at 28 °C
Method: (§1) Elyakov Pacific Institute of Bioorganic Chemistry, Far East Branch, Russian Academy of Sciences. Test substances were dissolved in DMSO at concentrations of 1.0, 0.1, and 0.01 mg/mL. All strains were grown on trypticase-soy agar TSA (BBL) at 37 °C. […] After incubation of the dishes at 37 °C for 24 h (for bacteria) and 48 h (for the fungus) at 28 °C, the diameters of the growth inhibition zones of pathogenic microorganisms (mm) were measured, including the diameter of the wells. Commercial antibacterial drugs (vancomicin and gentamicin) and antifungal (clotrimazol) drugs were used as positive controls.

S. aureus ATCC 21027 = test: Agar diffusion method, S. aureus; type: cell-based, Staphylococcus aureus; parameters: key to Diameter of Zone Inhibition, S. aureus: Zones within 20–40 mm mean strong antibiotic activity; zones up to 20 mm—moderate; ≤10 mm—weak; +—insignificant; details: 100 µg/well, 24 h, incl. 7 mm well; for zone of inhibition at 100 µg/disc: Staphylococcus aureus, ATCC21027, 24 h, read-out: Diameter of Zone Inhibition, S. aureus
Method: as §1

B. cereus ATCC 10702 = test: Agar diffusion method, B. cereus; type: cell-based, Bacillus cereus; details: Bacillus cereus, ATCC10702, 24 h, 100 µg/well, 24 h, incl. 7 mm well; read-out: Diameter of Zone Inhibition, B. cereus
Method: as §1

P. aeruginosa ATCC 27853 = test: Agar diffusion method, P. aeruginosa; type: cell-based, Pseudomonas aeruginosa; details: Pseudomonas aeruginosa, ATCC27853, 100 µg/well; read-out: Diameter of Zone Inhibition, P. aeruginosa
Method: as §1

E. coli K-12 = test: Agar diffusion method, E. coli; type: cell-based, Escherichia coli; details: Escherichia coli, K12; 100 µg/well; read-out: Diameter of Zone Inhibition, E. coli
Method: as §1

[1] = tested on: human cervical cancer (HeLa); test: Cytotoxicity, MTT assay, HeLa cells; details: for EC50: Homo sapiens, HeLa, 24 h, read-out: Cytotoxicity (EC50), HeLa
[2] = tested on: mouse neuroblastoma (Neuro 2a); test: Cytotoxicity, MTT assay, Neuro 2a cells; details: for EC50: N2a, 24 h, read-out: Cytotoxicity (EC50), Neuro 2a
[3] = Cytotoxicity, MTT assay, Jb6 Cl 41-5a normal epithelial cells; details: mouse, Jb6 Cl 41-5a normal epithelial cells
[4] = tested on: mouse ascites Ehrlich carcinoma; test: Cytotoxicity, nonspecific esterase (FDA) assay, ascites Ehrlich carcinoma cells; details: for EC50: Mus musculus, Ehrlich, 24 h, read-out: Cytotoxicity (EC50), Ascites Ehrlich Carcinoma
[5] = SI = EC50 (Jb6 Cl 41-5a normal cells)/EC50 (tumor cells)

Row | Compound | zone of inhibition at 10 µg/disc (C. albicans KMM 453; KMM453, 10 µg (disk)) [mm] | zone of inhibition at 100 µg/disc (S. aureus ATCC 21027) [mm] | zone of inhibition at 100 µg/disc (B. cereus ATCC 10702) [mm] | zone of inhibition at 100 µg/disc (P. aeruginosa ATCC 27853) [mm] | zone of inhibition at 100 µg/disc (E. coli K-12) [mm] | zone of inhibition at 100 µg/disc (C. albicans KMM 453) [mm] | melting point [°C] | EC50 [1] [µM] | EC50 [2] [µM] | EC50 at 24 h [3] [µM] | EC50 [4] [µM] | Diameter of Zone Inhibition, S. aureus (S. aureus ATCC 21027) | Selectivity Index (SI), HeLa [1, 5] | Selectivity Index (SI), Neuro-2a [2, 5] | Selectivity Index (SI), Ascitic Ehrlich Carcinoma [4, 5]
1 | Clc1ccccc1C(c1ccccc1)(c1ccccc1)n1ccnc1 [Clotrimazol (disk), reference compound] | 15 ± 2 | – | – | – | – | – | – | – | – | – | – | – | – | – | –
2 | COc1ccc(OC)c2c1C(=O)C1=C(S[C@@H]3O[C@H](CO)[C@@H](O)[C@H](O)[C@H]3O1)C2=O [Compound 17a, (2R,3S,4S,4aR,12aS)-3,4-Dihydroxy-2-hydroxymethyl-7,10-dimethoxy-3,4,4a,12a-tetrahydro-2H-naphtho[2,3-b]pyrano[2,3-e][2,5]oxathiine-6,11-dione] | – | 0 | 0 | 0 | 0 | 0 | 332 to 335 | > 25 | > 25 | > 25 | > 25 | – | – | – | –
3 | COc1ccc(OC)c2c1C(=O)C1=C(S[C@@H]3OC[C@@H](O)[C@H](O)[C@H]3O1)C2=O [Compound 17c, (3R,4S,4aR,12aS)-3,4-Dihydroxy-7,10-dimethoxy-3,4,4a,12a-tetrahydro-2H-naphtho[2,3-b]pyrano[2,3-e][2,5]oxathiine-6,11-dione] | – | 0 | 0 | 0 | 0 | 0 | 329 to 332 | > 25 | > 25 | > 25 | > 25 | – | – | – | –
4 | COc1ccc(OC)c2c1C(=O)C1=C(S[C@@H]3OC[C@H](O)[C@H](O)[C@H]3O1)C2=O [Compound 17d, (3S,4S,4aR,12aS)-3,4-Dihydroxy-7,10-dimethoxy-3,4,4a,12a-tetrahydro-2H-naphtho[2,3-b]pyrano[2,3-e][2,5]oxathiine-6,11-dione] | – | 0 | 0 | 0 | 0 | ≤ 10 | 317 to 320 | > 25 | > 25 | > 25 | > 25 | – | – | – | –
5 | COc1c(Cl)c(Cl)c(OC)c2c1C(=O)C1=C(S[C@@H]3O[C@H](CO)[C@@H](O)[C@H](O)[C@H]3O1)C2=O [Compound 18a, (2R,3S,4S,4aR,12aS)-8,9-Dichloro-3,4-dihydroxy-2-hydroxymethyl-7,10-dimethoxy-3,4,4a,12a-tetrahydro-2H-naphtho[2,3-b]pyrano[2,3-e][2,5]oxathiine-6,11-dione] | – | – | 0 | 0 | 0 | 0 | 222 to 224 | 10.9 | 2.4 | 1.5 | 8.8 | + | 0.1 | 0.6 | 0.2
